Blank lines part the entries; values can stand above or below the molecule they belong to.
Experiments:
[1] = target: ALK tyrosine kinase receptor (Homo sapiens) (UniProt Q9UM73); experiment: Induction of ALK degradation in human SU-DHL-1 cells assessed as maximum degradation at 100 nM pretreated with S-Ac-GSH followed by compound addition and measured after 12 hrs relative to control; assay type: cell-based
[2] = target: ALK tyrosine kinase receptor (Homo sapiens) (UniProt Q9UM73); experiment: Induction of ALK degradation in human SU-DHL-1 cells assessed as maximum degradation at 3 uM after 12 hrs relative to control; assay type: cell-based
SU-DHL-1 = experiment: Antiproliferative activity against human SU-DHL-1 cells; assay type: functional, cell-based
[3] = target: ALK tyrosine kinase receptor (Homo sapiens) (UniProt Q9UM73); experiment: Induction of ALK degradation in human SU-DHL-1 cells assessed as maximum degradation at 30 nM after 12 hrs relative to control; assay type: cell-based
[4] = target: T1, Tyrosine-protein kinase BTK (Homo sapiens, UniProt Q06187); experiment: Induction of BTK degradation in human MINO cells; assay type: cell-based
T1 sequence (Q06187 whole entry): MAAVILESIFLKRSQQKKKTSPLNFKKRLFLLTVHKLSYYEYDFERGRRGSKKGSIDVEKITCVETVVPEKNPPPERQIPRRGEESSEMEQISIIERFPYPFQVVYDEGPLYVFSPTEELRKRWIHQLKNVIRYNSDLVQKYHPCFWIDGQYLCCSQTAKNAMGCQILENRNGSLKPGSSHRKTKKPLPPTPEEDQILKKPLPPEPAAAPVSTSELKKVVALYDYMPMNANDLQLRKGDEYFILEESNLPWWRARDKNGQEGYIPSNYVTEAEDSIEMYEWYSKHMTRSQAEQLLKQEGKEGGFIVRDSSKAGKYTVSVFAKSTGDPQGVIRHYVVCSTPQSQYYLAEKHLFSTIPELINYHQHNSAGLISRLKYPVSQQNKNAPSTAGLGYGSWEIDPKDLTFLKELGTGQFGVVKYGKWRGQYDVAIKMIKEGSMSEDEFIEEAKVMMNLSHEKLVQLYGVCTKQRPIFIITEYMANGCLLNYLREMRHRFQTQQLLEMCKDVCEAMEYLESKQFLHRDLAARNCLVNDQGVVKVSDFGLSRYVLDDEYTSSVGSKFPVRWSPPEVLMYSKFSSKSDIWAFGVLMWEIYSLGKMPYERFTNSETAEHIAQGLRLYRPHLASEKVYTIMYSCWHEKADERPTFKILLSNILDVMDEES

[5] = target: T1, Tyrosine-protein kinase BTK; experiment: Induction of BTK degradation in human MINO cells assessed as maximum degradation relative to control; assay type: cell-based
[6] = target: Bromodomain-containing protein 4 (Homo sapiens, UniProt O60885); experiment: Induction of BRD4 degradation in human HeLa cells assessed as maximum degradation at 10 nM after 12 hrs relative to control; assay type: cell-based
HeLa = experiment: Antiproliferative activity against human HeLa cells; assay type: functional, cell-based
Protein cereblon [7] = target: T2, Protein cereblon (Homo sapiens, UniProt Q96SW2); experiment: Induction of CRBN degradation in human MM1.S cells assessed as maximum degradation at 100 nM incubated for 24 hrs relative to control; assay type: cell-based
T2 sequence (Q96SW2 whole entry): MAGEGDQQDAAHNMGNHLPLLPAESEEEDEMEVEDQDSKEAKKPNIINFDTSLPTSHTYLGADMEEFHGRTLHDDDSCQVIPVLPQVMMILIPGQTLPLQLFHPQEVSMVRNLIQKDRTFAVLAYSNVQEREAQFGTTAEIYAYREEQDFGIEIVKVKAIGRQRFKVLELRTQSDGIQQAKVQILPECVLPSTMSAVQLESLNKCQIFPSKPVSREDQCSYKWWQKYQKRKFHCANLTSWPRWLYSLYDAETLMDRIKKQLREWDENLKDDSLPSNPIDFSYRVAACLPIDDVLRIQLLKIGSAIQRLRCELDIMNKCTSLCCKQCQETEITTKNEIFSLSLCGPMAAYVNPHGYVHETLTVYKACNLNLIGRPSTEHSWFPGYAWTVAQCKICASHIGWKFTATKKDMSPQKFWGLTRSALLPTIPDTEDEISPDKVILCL

[8] = target: Androgen receptor (Homo sapiens) (UniProt P10275); experiment: Induction of AR degradation in human 22Rv1 cells assessed as maximum degradation at 10 uM after 8 hrs relative to control; assay type: cell-based
Chain of Androgen receptor (Homo sapiens) (P10275 whole entry): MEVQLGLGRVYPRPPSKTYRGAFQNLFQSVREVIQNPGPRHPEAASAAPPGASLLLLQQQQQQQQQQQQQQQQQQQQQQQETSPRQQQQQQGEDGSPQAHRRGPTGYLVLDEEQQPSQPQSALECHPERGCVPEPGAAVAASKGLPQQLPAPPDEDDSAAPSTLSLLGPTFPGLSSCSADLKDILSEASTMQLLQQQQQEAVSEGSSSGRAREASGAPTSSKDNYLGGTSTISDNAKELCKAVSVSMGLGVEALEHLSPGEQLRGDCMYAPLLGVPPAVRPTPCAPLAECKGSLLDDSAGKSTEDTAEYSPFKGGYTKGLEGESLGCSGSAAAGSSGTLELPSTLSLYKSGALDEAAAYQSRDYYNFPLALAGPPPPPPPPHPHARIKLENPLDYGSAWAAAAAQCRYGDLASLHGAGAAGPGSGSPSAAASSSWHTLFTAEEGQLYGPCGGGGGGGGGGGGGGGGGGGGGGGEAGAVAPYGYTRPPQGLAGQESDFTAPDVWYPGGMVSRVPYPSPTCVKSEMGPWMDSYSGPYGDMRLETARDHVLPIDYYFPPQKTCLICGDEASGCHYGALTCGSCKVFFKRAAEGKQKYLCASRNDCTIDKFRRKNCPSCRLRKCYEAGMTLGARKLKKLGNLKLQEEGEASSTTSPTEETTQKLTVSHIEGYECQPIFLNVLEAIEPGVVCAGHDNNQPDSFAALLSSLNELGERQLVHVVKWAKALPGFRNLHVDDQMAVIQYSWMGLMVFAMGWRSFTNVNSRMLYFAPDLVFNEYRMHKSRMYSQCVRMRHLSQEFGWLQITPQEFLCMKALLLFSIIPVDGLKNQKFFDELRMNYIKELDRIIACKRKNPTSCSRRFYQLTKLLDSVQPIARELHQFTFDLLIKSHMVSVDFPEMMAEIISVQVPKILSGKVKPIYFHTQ

Protein cereblon [9] = target: T2, Protein cereblon; experiment: Induction of CRBN degradation in human HeLa cells at 1 uM incubated for 4 hrs relative to control; assay type: cell-based
Protein cereblon [10] = target: T2, Protein cereblon; experiment: Induction of CRBN degradation in human HeLa cells incubated for 4 hrs; assay type: cell-based
HT-29 = experiment: Antiproliferative activity against human HT-29 cells; assay type: functional, cell-based
[11] = target: Dual specificity mitogen-activated protein kinase kinase; MEK1/2 (Homo sapiens) (UniProt P36507+Q02750); experiment: Induction of MEK degradation in human HT-29 cells assessed as maximum degradation at 100 nM after 12 hrs relative to control; assay type: cell-based
Chain of Dual specificity mitogen-activated protein kinase kinase; MEK1/2 (Homo sapiens) (P36507 whole entry, looked up): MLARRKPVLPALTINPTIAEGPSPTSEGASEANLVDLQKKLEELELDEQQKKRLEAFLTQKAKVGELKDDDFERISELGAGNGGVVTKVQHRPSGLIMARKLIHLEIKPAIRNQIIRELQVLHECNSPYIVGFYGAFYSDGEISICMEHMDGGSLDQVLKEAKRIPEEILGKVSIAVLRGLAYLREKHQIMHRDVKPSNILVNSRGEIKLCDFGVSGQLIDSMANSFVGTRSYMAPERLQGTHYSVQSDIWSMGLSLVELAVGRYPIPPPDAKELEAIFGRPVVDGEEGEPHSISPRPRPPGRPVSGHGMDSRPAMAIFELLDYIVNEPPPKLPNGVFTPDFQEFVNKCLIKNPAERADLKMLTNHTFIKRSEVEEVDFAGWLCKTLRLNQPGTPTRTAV
Chain of Dual specificity mitogen-activated protein kinase kinase; MEK1/2 (Homo sapiens) (Q02750 whole entry, looked up): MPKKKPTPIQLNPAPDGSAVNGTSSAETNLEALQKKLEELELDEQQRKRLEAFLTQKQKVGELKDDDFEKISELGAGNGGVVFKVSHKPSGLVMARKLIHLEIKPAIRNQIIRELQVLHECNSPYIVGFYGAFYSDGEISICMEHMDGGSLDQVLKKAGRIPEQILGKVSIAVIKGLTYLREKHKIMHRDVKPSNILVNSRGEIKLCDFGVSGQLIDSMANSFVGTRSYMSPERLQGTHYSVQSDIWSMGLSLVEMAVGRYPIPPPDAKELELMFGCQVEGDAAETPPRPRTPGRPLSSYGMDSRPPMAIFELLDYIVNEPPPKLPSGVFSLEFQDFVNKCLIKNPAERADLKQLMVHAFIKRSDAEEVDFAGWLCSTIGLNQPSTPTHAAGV

HCT-116 = experiment: Antiproliferative activity against human HCT-116 cells; assay type: functional, cell-based
A549 = experiment: Antiproliferative activity against human A549 cells; assay type: functional, cell-based
MV4-11 = experiment: Antiproliferative activity against human MV4-11 cells
MCF7 = experiment: Antitumor activity against human MCF7 cells xenografted in mouse assessed as tumor growth inhibition; assay type: functional

Chain of ALK tyrosine kinase receptor (Homo sapiens) (Q9UM73 19-1620 limits assumed): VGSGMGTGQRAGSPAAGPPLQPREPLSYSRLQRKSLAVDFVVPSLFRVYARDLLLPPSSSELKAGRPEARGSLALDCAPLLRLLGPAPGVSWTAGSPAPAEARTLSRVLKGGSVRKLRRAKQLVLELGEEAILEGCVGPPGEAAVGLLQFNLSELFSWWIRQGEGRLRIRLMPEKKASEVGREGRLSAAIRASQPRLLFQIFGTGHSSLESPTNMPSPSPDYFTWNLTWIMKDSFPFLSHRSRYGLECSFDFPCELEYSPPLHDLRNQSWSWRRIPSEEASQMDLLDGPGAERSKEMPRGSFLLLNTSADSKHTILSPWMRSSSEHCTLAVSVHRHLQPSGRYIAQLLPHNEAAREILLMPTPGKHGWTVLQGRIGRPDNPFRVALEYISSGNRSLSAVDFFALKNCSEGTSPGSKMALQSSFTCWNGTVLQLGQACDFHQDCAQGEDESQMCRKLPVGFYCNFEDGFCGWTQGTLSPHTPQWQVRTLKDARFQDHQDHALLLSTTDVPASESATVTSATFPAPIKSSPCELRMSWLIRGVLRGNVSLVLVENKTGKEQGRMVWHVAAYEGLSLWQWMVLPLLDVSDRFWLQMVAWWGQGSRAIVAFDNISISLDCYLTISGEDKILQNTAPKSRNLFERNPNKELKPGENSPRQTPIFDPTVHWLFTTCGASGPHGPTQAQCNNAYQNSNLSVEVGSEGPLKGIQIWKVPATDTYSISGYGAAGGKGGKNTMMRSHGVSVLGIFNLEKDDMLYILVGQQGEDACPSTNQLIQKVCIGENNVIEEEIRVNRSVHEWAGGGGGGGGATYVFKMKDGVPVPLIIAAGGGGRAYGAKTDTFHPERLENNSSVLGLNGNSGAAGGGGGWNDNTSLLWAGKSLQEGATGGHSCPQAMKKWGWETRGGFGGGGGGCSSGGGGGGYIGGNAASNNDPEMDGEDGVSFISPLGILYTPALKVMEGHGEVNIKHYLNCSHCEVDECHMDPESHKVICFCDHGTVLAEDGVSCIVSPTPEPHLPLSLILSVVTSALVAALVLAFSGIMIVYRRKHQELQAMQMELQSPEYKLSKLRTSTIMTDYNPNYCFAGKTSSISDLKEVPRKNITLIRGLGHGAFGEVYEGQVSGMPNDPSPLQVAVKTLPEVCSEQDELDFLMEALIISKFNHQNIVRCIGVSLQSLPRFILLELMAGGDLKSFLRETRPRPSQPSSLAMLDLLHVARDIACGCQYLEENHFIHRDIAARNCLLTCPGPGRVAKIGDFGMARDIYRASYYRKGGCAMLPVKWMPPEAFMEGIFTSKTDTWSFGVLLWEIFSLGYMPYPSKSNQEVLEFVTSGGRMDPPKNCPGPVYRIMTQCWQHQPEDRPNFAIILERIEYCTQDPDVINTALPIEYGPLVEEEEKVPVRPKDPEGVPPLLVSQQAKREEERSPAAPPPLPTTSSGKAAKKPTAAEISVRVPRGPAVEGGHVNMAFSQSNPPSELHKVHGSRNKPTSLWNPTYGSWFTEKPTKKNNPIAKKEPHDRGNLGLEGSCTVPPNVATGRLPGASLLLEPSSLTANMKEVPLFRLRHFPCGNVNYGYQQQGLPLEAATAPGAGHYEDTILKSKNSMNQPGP

Emax [1]: 100%
Emax [2]: 100%
IC50 (SU-DHL-1): 465 nM
SMILES: Cc1cc(Nc2ncc(Cl)c(Nc3ccccc3S(=O)(=O)C(C)C)n2)c(OC(C)C)cc1C1CCN(CC(=O)NCCNc2cccc3c2C(=O)N(C2CCC(=O)N(C(=O)OCCSSCCn4cc(CNC(=O)CC[C@H](NC(=O)c5ccc(NCc6cnc7nc(N)[nH]c(=O)c7n6)cc5)C(=O)O)nn4)C2=O)C3=O)CC1 (stereo partly specified)

Emax [3]: 90%
IC50 (SU-DHL-1): 16 nM
SMILES: Cc1cc(Nc2ncc(Cl)c(Nc3ccccc3S(=O)(=O)C(C)C)n2)c(OC(C)C)cc1C1CCN(CC(=O)NCCNc2cccc3c2C(=O)N(C2CCC(=O)NC2=O)C3=O)CC1 (stereo unspecified)

DC50 [4]: 6 nM
Emax [5]: 85%
SMILES: CC(C)(/C=C(\C#N)C(=O)N1CCC[C@@H](n2nc(-c3ccc(Oc4ccccc4)cc3)c3c(N)ncnc32)C1)CCCOCCOCCOCCOCCOc1cccc2c1C(=O)N(C1CCC(=O)NC1=O)C2=O (stereo partly specified)

Emax [6]: 100%
IC50 (HeLa): 183 nM
SMILES: Cc1ncsc1-c1ccc([C@H](C)NC(=O)[C@@H]2C[C@@H](O)CN2C(=O)[C@@H](NC(=O)COCCCOCCNC(=O)C[C@@H]2N=C(c3ccc(Cl)cc3)c3c(sc(C)c3C)-n3c(C)nnc32)C(C)(C)C)cc1

Emax (Protein cereblon [7]): > 90%
SMILES: Cc1ncsc1-c1ccc(CNC(=O)[C@@H]2C[C@@H](O)CN2C(=O)[C@@H](NC(=O)CCCCOCCCCCOCCCCCCNc2cccc3c2C(=O)N(C2CCC(=O)NC2=O)C3=O)C(C)(C)C)cc1 (stereo partly specified)

Emax [8]: 90%
SMILES: CC1(C)[C@H](NC(=O)c2ccc(OCC(=O)NCCCOCCOCCOCCCN(C(=O)CCl)C(C(=O)NCc3ccccc3)c3ccc(Cl)c(Cl)c3)cc2)C(C)(C)[C@H]1Oc1ccc(C#N)c(Cl)c1 (stereo partly specified)

Emax (Protein cereblon [9]): 75%
DC50 (Protein cereblon [10]): 200 nM
SMILES: Cc1ncsc1-c1ccc(CNC(=O)[C@@H]2C[C@@H](O)CN2C(=O)[C@@H](NC(=O)COCCCCCOCCOCCCCCOCC(=O)NCCNc2cccc3c2C(=O)N(C2CCC(=O)NC2=O)C3=O)C(C)(C)C)cc1 (stereo partly specified)

DC50 [4]: 1.9 nM
Emax [5]: 88%
SMILES: Nc1ncnc2c1c(-c1ccc(Oc3ccccc3)cc1)nn2[C@@H]1CCCN(C(=O)/C=C/CCCCOCCOCCOCCOCCOc2cccc3c2C(=O)N(C2CCC(=O)NC2=O)C3=O)C1 (stereo partly specified)

IC50 (HT-29): 246 nM
Emax [11]: 90%
SMILES: Cc1ncsc1-c1ccc([C@H](C)NC(=O)[C@@H]2C[C@@H](OC(=O)CCCCn3cc(CNC(=O)CC[C@H](NC(=O)c4ccc(NCc5cnc6nc(N)[nH]c(=O)c6n5)cc4)C(=O)O)nn3)CN2C(=O)[C@@H](NC(=O)CCCCCCCCCCNCCCONC(=O)c2ccc(F)c(F)c2Nc2ccc(I)cc2F)C(C)(C)C)cc1

IC50 (HCT-116): 5000 nM
IC50 (A549): 7900 nM
SMILES: COc1ccc(C2=N[C@@H](c3ccc(Cl)cc3)[C@@H](c3ccc(Cl)cc3)N2C(=O)N2CCNC(=O)C2)c(OC(C)C)c1 [NUTLIN-3]

IC50 (MV4-11): 94.6 nM
SMILES: Cc1sc2c(c1C)C(c1ccc(Cl)cc1)=N[C@@H](CC(=O)NCCOCCOCCOCC(C)(COCCOCCOCCNC(=O)C[C@@H]1N=C(c3ccc(Cl)cc3)c3c(sc(C)c3C)-n3c(C)nnc31)COC(=O)NCCNc1cccc3c1C(=O)N(C1CCC(=O)NC1=O)C3=O)c1nnc(C)n1-2 (stereo partly specified)

SMILES: Cc1ncsc1-c1ccc(CNC(=O)[C@@H]2C[C@@H](O)CN2C(=O)[C@@H](NC(=O)COCCOCCOCCNC(=O)C[C@@H]2N=C(c3ccc(Cl)cc3)c3c(sc(C)c3C)-n3c(C)nnc32)C(C)(C)C)cc1
TGI (MCF7): 59.8%

Source: ChEMBL document CHEMBL5223100, “Homobivalent, Trivalent, and Covalent PROTACs: Emerging Strategies for Protein Degradation” (J Med Chem, 2022)
